Experiments:
RAF1 (human) = RAF1 (human) (UniProt P04049); experiment: ELISA
BMPR1A (human) = BMPR1A (human) (UniProt P36894); experiment: ELISA
PLK4 (human) = PLK4 (human) (UniProt O00444); experiment: ELISA
MAP3K2 (human) = MAP3K2 (human) (UniProt Q9Y2U5); experiment: ELISA
MAP3K5 (human) = MAP3K5 (human) (UniProt Q99683); experiment: ELISA
MAP2K7 (human) = MAP2K7 (human) (UniProt O14733); experiment: ELISA
MAP3K10 (human) = MAP3K10 (human) (UniProt Q02779); experiment: ELISA
MAP2K2 (human) = MAP2K2 (human) (UniProt P36507); experiment: ELISA
MAP3K1 (human) = MAP3K1 (human) (UniProt Q13233); experiment: ELISA
MAP3K8 (human) = MAP3K8 (human) (UniProt P41279); experiment: ELISA
WEE1 (human) = WEE1 (human) (UniProt P30291); experiment: ELISA
MAP3K9 (human) = MAP3K9 (human) (UniProt P80192); experiment: ELISA
LIMK1 (human) = LIMK1 (human) (UniProt P53667); experiment: ELISA
MAP2K1 (human) = MAP2K1 (human) (UniProt Q02750); experiment: ELISA
MAP3K12 (human) = MAP3K12 (human) (UniProt Q12852); experiment: ELISA
MOS (human) = MOS (human) (UniProt P00540); experiment: ELISA
MAP3K3 (human) = MAP3K3 (human) (UniProt Q99759); experiment: ELISA
STK11 (human) = STK11 (human) (UniProt Q15831); experiment: ELISA
MAP2K6 (human) = MAP2K6 (human) (UniProt P52564); experiment: ELISA
MAP2K5 (human) = MAP2K5 (human) (UniProt Q13163); experiment: ELISA
MAP3K11 (human) = MAP3K11 (human) (UniProt Q16584); experiment: ELISA
TTK (human) = TTK (human) (UniProt P33981); experiment: ELISA
MAP2K3 (human) = MAP2K3 (human) (UniProt P46734); experiment: ELISA
MAP3K4 (human) = MAP3K4 (human) (UniProt Q9Y6R4); experiment: ELISA
TNK2 (human) = TNK2 (human) (UniProt Q07912); experiment: Caliper, Mobility shift assay off-chip
CSNK1G3 (human) = CSNK1G3 (human) (UniProt Q9Y6M4); experiment: Caliper, Mobility shift assay off-chip
PRKD1 (human) = PRKD1 (human) (UniProt Q15139); experiment: Caliper, Mobility shift assay off-chip
RPS6KA3 KD1 KD2 (human) = RPS6KA3 KD1 KD2 (human) (UniProt P51812); experiment: Caliper, Mobility shift assay off-chip
FER (human) = FER (human) (UniProt P16591); experiment: Caliper, Mobility shift assay off-chip
MARK3 (human) = MARK3 (human) (UniProt P27448); experiment: Caliper, Mobility shift assay off-chip
CDK5 (human) = CDK5 (human) (UniProt Q00535); experiment: Caliper, Mobility shift assay off-chip
ALK (human) = ALK (human) (UniProt Q9UM73); experiment: Caliper, Mobility shift assay off-chip
EPHA6 (human) = EPHA6 (human) (UniProt Q9UF33); experiment: Caliper, Mobility shift assay off-chip
PGK1 (human) = PGK1 (human) (UniProt P00558); experiment: Caliper, Mobility shift assay off-chip
Sequence of PGK1 (human) (P00558 whole entry, looked up): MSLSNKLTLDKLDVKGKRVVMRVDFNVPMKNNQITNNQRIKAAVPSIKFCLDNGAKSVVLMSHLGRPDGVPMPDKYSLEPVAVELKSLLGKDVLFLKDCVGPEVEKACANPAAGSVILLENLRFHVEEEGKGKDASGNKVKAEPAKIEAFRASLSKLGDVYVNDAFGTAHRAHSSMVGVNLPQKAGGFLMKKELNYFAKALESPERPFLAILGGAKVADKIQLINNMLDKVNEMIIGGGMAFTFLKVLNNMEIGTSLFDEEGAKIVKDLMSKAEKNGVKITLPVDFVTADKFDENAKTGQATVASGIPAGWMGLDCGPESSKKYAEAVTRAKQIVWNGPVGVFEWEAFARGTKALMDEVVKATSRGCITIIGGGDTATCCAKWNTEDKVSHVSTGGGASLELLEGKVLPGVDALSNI

Sequence of MAP3K3 (human) (Q99759 whole entry, looked up): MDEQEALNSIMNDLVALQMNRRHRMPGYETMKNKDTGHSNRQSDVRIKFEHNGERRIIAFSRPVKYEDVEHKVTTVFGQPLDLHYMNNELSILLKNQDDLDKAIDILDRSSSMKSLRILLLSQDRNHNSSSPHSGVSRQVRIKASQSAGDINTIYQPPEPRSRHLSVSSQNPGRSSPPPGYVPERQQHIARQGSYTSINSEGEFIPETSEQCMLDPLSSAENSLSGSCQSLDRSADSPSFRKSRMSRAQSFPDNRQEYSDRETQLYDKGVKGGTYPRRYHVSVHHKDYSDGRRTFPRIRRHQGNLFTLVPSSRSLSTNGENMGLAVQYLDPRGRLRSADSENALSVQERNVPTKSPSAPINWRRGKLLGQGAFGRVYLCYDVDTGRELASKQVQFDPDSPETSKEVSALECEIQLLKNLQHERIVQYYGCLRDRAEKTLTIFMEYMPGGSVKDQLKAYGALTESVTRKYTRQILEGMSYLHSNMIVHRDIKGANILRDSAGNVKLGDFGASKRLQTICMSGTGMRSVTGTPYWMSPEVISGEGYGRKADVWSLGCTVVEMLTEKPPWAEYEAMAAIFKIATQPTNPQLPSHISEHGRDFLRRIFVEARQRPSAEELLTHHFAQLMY
Sequence of TNK2 (human) (Q07912 whole entry, looked up): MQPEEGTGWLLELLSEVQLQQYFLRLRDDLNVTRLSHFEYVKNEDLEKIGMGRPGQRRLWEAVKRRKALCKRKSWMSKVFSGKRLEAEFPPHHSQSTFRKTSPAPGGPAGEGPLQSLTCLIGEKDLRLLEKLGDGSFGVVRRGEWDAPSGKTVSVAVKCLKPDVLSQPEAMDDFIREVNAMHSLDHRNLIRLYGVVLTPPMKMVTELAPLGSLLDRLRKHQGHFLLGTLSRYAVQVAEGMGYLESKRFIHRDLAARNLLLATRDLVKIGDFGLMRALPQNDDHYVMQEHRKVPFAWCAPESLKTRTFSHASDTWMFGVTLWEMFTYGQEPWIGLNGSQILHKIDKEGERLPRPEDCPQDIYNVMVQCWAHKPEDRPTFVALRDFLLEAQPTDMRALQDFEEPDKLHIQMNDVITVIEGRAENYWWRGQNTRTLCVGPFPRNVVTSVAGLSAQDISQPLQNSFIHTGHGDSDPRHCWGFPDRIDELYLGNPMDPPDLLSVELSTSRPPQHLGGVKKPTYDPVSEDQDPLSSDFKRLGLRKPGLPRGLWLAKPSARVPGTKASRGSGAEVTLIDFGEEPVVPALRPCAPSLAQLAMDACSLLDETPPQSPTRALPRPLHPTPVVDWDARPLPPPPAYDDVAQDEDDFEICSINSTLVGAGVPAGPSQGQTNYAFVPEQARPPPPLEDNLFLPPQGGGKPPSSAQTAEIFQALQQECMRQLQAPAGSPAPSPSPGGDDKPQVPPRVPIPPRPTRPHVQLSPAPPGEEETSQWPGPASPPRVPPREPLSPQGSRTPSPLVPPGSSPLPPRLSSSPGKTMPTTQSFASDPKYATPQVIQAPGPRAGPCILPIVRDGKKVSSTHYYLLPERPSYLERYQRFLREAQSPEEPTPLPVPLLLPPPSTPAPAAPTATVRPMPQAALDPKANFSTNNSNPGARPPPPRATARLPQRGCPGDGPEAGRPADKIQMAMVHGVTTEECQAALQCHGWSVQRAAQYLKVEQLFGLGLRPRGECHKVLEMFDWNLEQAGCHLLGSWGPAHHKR
Sequence of MARK3 (human) (P27448 whole entry, looked up): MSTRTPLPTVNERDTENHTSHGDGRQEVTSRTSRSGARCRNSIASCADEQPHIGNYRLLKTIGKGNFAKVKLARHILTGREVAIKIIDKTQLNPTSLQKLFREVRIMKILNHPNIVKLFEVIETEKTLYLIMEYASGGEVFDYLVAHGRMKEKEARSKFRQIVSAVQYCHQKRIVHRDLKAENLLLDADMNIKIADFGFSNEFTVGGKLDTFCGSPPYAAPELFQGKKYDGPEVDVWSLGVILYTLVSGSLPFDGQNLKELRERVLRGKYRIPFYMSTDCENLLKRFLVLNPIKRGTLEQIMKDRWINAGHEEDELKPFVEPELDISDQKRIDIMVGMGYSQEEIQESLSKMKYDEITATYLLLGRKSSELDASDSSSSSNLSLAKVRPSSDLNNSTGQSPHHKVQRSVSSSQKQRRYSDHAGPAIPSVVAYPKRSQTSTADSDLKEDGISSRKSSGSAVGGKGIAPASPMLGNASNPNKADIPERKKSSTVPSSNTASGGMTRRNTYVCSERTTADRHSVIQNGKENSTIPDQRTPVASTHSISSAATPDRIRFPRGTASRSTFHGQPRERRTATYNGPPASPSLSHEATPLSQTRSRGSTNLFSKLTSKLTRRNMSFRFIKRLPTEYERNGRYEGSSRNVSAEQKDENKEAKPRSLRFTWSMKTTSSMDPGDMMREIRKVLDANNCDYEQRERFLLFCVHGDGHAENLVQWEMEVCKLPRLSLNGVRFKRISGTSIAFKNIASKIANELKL
Sequence of MAP2K2 (human) (P36507 whole entry, looked up): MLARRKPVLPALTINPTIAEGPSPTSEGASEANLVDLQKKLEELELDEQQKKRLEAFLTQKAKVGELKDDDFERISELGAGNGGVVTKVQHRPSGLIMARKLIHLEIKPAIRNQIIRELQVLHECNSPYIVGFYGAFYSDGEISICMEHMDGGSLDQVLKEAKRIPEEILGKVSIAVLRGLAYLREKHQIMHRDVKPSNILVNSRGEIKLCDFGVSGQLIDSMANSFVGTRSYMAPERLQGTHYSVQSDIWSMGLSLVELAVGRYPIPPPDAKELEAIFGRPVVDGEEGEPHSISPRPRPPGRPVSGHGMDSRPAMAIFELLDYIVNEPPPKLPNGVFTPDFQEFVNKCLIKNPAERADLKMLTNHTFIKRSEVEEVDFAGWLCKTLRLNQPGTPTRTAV
Sequence of MAP3K11 (human) (Q16584 whole entry, looked up): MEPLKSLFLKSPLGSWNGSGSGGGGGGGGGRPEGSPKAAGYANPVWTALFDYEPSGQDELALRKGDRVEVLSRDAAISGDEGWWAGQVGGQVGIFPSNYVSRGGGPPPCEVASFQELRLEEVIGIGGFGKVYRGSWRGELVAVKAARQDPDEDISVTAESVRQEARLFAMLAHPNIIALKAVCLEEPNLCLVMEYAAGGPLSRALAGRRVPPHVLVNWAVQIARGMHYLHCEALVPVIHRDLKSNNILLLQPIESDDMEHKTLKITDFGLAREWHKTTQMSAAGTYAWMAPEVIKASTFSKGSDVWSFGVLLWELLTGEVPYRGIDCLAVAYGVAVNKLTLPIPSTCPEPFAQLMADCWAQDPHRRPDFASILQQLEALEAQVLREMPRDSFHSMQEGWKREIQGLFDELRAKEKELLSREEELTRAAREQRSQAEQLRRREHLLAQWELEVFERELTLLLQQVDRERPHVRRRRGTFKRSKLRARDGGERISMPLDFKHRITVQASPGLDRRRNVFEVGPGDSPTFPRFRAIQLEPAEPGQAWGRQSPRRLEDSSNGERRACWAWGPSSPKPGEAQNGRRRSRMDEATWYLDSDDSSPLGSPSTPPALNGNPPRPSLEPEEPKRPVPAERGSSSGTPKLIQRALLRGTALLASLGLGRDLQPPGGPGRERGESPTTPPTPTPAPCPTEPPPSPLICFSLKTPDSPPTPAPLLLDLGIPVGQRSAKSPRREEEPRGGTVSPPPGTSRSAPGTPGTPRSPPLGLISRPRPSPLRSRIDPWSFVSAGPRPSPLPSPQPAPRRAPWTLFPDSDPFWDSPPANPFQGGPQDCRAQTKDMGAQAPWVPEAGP
Sequence of STK11 (human) (Q15831 whole entry, looked up): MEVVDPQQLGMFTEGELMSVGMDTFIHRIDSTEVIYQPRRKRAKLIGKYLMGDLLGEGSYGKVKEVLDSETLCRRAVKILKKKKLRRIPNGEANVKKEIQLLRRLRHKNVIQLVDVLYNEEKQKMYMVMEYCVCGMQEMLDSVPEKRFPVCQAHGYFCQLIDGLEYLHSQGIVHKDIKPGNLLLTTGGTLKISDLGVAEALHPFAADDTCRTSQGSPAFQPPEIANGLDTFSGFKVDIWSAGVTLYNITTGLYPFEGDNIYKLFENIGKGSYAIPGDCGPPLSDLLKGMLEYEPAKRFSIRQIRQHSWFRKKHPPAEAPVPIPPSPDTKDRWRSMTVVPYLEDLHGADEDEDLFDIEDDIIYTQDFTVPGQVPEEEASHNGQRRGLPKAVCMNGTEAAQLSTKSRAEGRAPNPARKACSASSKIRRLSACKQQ
Sequence of BMPR1A (human) (P36894 whole entry, looked up): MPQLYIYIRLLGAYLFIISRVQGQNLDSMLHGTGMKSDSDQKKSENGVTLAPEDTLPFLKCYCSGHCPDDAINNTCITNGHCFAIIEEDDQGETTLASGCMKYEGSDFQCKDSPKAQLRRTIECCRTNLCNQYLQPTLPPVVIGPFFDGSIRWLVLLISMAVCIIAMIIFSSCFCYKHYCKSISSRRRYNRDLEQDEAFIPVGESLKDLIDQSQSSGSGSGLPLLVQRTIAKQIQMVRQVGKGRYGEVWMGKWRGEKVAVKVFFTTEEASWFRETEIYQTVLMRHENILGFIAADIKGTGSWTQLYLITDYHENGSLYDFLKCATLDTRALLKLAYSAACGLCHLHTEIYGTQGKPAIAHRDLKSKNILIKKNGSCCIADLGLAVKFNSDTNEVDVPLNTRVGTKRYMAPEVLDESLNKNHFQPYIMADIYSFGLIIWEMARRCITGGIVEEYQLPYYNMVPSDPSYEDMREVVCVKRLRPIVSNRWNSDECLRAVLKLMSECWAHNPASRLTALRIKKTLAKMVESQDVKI

CNC(=O)c1cc(Oc2ccc(NC(=O)Nc3ccc(Cl)c(C(F)(F)F)c3)cc2)ccn1
inhibition (RAF1 (human); compound 0.02 µM): 41.7% | inhibition (RAF1 (human); compound 0.2 µM): 88.1% | inhibition (BMPR1A (human); compound 0.02 µM): 6.9% | inhibition (BMPR1A (human); compound 0.2 µM): 7% | inhibition (PLK4 (human); compound 0.02 µM): 10.5% | inhibition (PLK4 (human); compound 0.2 µM): 13.4% | inhibition (MAP3K2 (human); compound 0.02 µM): 5.2% | inhibition (MAP3K2 (human); compound 0.2 µM): 5.2% | inhibition (MAP3K5 (human); compound 0.02 µM): 9.6% | inhibition (MAP3K5 (human); compound 0.2 µM): 7.4% | inhibition (MAP2K7 (human); compound 0.02 µM): -0.7% | inhibition (MAP2K7 (human); compound 0.2 µM): 1.1% | inhibition (MAP3K10 (human); compound 0.02 µM): -1.8% | inhibition (MAP3K10 (human); compound 0.2 µM): -2.3% | inhibition (MAP2K2 (human); compound 0.02 µM): -1.8% | inhibition (MAP2K2 (human); compound 0.2 µM): -2.7% | inhibition (MAP3K1 (human); compound 0.02 µM): 0.7% | inhibition (MAP3K1 (human); compound 0.2 µM): -0.2% | inhibition (MAP3K8 (human); compound 0.02 µM): 0.5% | inhibition (MAP3K8 (human); compound 0.2 µM): 0.2% | inhibition (WEE1 (human); compound 0.02 µM): -7.4% | inhibition (WEE1 (human); compound 0.2 µM): -2% | inhibition (MAP3K9 (human); compound 0.02 µM): 8.6% | inhibition (MAP3K9 (human); compound 0.2 µM): 10.1% | inhibition (LIMK1 (human); compound 0.02 µM): 2.6% | inhibition (LIMK1 (human); compound 0.2 µM): 13% | inhibition (MAP2K1 (human); compound 0.02 µM): 13.7% | inhibition (MAP2K1 (human); compound 0.2 µM): 17.4% | inhibition (MAP3K12 (human); compound 0.02 µM): 4.1% | inhibition (MAP3K12 (human); compound 0.2 µM): 2.7% | inhibition (MOS (human); compound 0.02 µM): 3% | inhibition (MOS (human); compound 0.2 µM): 0.5% | inhibition (MAP3K3 (human); compound 0.02 µM): -2.1% | inhibition (MAP3K3 (human); compound 0.2 µM): -3% | inhibition (STK11 (human); compound 0.02 µM): 6.4% | inhibition (STK11 (human); compound 0.2 µM): 6.2% | inhibition (MAP2K6 (human); compound 0.02 µM): 13.6% | inhibition (MAP2K6 (human); compound 0.2 µM): 64.2% | inhibition (MAP2K5 (human); compound 0.02 µM): 3.6% | inhibition (MAP2K5 (human); compound 0.2 µM): 6.2% | inhibition (MAP3K11 (human); compound 0.02 µM): 2.4% | inhibition (MAP3K11 (human); compound 0.2 µM): -2.6% | inhibition (TTK (human); compound 0.02 µM): -7.6% | inhibition (TTK (human); compound 0.2 µM): -4.3% | inhibition (MAP2K3 (human); compound 0.02 µM): 9.8% | inhibition (MAP2K3 (human); compound 0.2 µM): 58.5% | inhibition (MAP3K4 (human); compound 0.02 µM): 8.5% | inhibition (MAP3K4 (human); compound 0.2 µM): 4.4% | inhibition (TNK2 (human); compound 0.02 µM): -5% | inhibition (TNK2 (human); compound 0.2 µM): -3.2% | inhibition (CSNK1G3 (human); compound 0.02 µM): -1.4% | inhibition (CSNK1G3 (human); compound 0.2 µM): -6.9% | inhibition (PRKD1 (human); compound 0.02 µM): -1.1% | inhibition (PRKD1 (human); compound 0.2 µM): 2.7% | inhibition (RPS6KA3 KD1 KD2 (human); compound 0.02 µM): -5% | inhibition (RPS6KA3 KD1 KD2 (human); compound 0.2 µM): -5.9% | inhibition (FER (human); compound 0.02 µM): -1.8% | inhibition (FER (human); compound 0.2 µM): 13.2% | inhibition (MARK3 (human); compound 0.02 µM): -5.5% | inhibition (MARK3 (human); compound 0.2 µM): 5.7% | inhibition (CDK5 (human); compound 0.02 µM): -3.5% | inhibition (CDK5 (human); compound 0.2 µM): -3.6% | inhibition (ALK (human); compound 0.02 µM): -3.3% | inhibition (ALK (human); compound 0.2 µM): 5.8% | inhibition (EPHA6 (human); compound 0.02 µM): 16.5% | inhibition (EPHA6 (human); compound 0.2 µM): 77.8% | inhibition (PGK1 (human); compound 0.02 µM): -6.2% | inhibition (PGK1 (human); compound 0.2 µM): 1.9%
